From patent publication US11020378B2, “Compounds, compositions and methods for treating insulin resistance” (UNIVERSITE PARIS DESCARTES, priority 2017, dated 2021)

Experiments:
[1] = tested on: PI3K/Akt pathway; assay: Luc-Akt-PH/YFP-membrane BRET in MCF7 line; assay type: cell-based; conditions: 50 μM, MCF7 cells
Description: FIG. 5A and FIG. 5B, the effect of the compound of Formula (Ia) according to the invention (black bars) on the activation of the PI3K/Akt pathway measured by the Luc-Akt-PH/YFP-membrane BRET technique compared to the DMSO (Dimethylsulfoxide) control (white bars) as measured on (FIG. 5A) HEK293T cells pre-incubated or not for 1 h with tyrosine kinase inhibitor AG1024 at a concentration of 25 μM final or on (FIG. 5B) an MCF7 line doubly and stably transfected with the vectors encoding Luc-Akt-PH and YFP-membrane. The results, expressed as BRET delta, are the average of 3 to 8 independent experiments (**p<0.01, ***p<0.001, by Newman-Keuls multiple comparison test).
To measure the activity of the PI3-kinase pathway by the BRET technique, HEK293T cells are transfected with plasmids allowing, on the one hand, the expression of the PH (Pleckstrin Homology) domain of the Akt protein which has been fused to the luciferase and, on the other hand, a membrane-addressing sequence which has been fused to the YFP protein. When the PH domain of Akt is recruited to the membrane by the PIP3s, an energy transfer between the luciferase that is coupled to the PH domain of Akt and the membrane YFP protein takes place. The measured BRET signal is a control of the production of PIP3s at the membrane and is a reflection of the activation of the PI-3-kinase/Akt pathway in real time on cells. […]

[2] = target: T1, IR-Grb14 interaction (Homo sapiens, UniProt P06213); assay: IR-Luc/Grb14-YFP BRET technique in a cell-free system; assay type: binding
T1 construct: a vector encoding the insulin receptor fused to the luciferase (IR-Luc); made in house; host or cells: HEK293T (transfected); IR-Luc was partially purified on wheat germ lectin sepharose; Grb14-YFP was used as crude lysate
Description: Compounds according to the invention were experimentally assessed for their inhibitory effect on the IR-Grb14 interaction by a BRET technique in a cell-free system described briefly below.
On the one hand, HEK293T cells were transfected with a vector encoding the insulin receptor fused to the luciferase (IR-Luc). Before lysis, the cells transfected with IR-Luc were stimulated or not with 100 nM insulin for 10 minutes. The IR-Luc lysates were recovered and then purified on sepharose beads coupled with wheat germ lectin (WGL for Wheat Germ Lectin). The IR-Luc receptors were then eluted and then frozen in liquid nitrogen before being stored at −80° C. On the other hand, HEK293T cells were transfected either with a vector encoding the Grb14 protein fused to the YFP (Grb14-YFP), or with the empty plasmid pcDNA3. The cells transfected with Grb14-YFP or with the empty plasmid pcDNA3 were lysed 48 h after transfection. After centrifugation, the lysates are recovered and frozen at −80° C.
The insulin receptors (IR-Luc) partially purified from cells stimulated or not with insulin were incubated for 20 minutes with the inhibitor compounds according to the invention suspended in DMSO. The cellular extracts from cells transfected with Grb14-YFP (or the empty plasmid pcDNA3) were then added and then after 40 minutes of incubation, coelenterazine was added and BRET reading was initiated. The results are expressed as a percentage of the BRET signal obtained in the presence of the molecules tested compared to the BRET signal of the DMSO control.

[3] = Repeat-dose toxicity study in C57Bl/6J mice; assay type: in vivo
Description: A repeat-dose toxicity study was also conducted in C57Bl/6J mice (12 males, 8 weeks old). Mice were treated daily either by gavage with 30 mg/kg/day of compound of Formula (Ia) diluted in 0.5% carboxymethylcellulose; or by intraperitoneal injection with 30 mg/kg/day of compound of Formula (Ia) diluted in DMSO, or with DMSO alone, for a period of 15 days.

[4] = tested on: SREBP-1c, ACC, FAS and SCD1 expression; assay: Expression of lipogenesis genes in hepatocytes in primary culture (RT-qPCR); assay type: cell-based, mouse; conditions: condition G25i (25 mM glucose, 10 nM insulin), 24 h
Description: FIG. 7, the effect of the compound of Formula (Ia) according to the invention (black bars) on the expression of insulin target genes, SREBP-1c, ACC, FAS, and SCD1 (FIGS. 7A-D, respectively) involved in the lipogenesis pathway. Hepatocytes in primary culture are cultured in the presence of 5 mM glucose (G5) or 25 mM glucose (G25) and 10 nM insulin for 24 h. The relative quantification of mRNAs is performed by RT-qPCR. The values are related to the quantification of the 18S gene in the same sample in order to normalize the results. The results are the average of 3 to 5 independent experiments (*p<0.05 by Anova followed by a Newman-Keuls test).
Briefly, mouse hepatocytes in primary culture are cultured in the presence of 5 mM glucose (G5) or 25 mM glucose (G25), and 10 nM insulin for 24 h. The relative quantification of mRNAs is performed by RT-qPCR and the values are related to the quantification of the 18S gene from the same sample in order to normalize the results.

[5] = target: T2, IRTK-Grb10 interaction (Homo sapiens, UniProt P06213); assay: Co-immunoprecipitation of IRTK48-RLuc with Grb10-YFP in co-transfected HEK 293T cells; assay type: cell-based; conditions: same experiment as with Grb14
T2 construct: a construct bearing only the tyrosine kinase domain of the luciferase-fused receptor and the Grb10 protein fused to YFP; expressed in transfected cells; host or cells: HEK 293T
Description: In order to test the specificity of the compound of Formula (Ia) on this IRTK-Grb14 interaction, the same experiment was conducted with HEK 293T cells co-transfected with a construct bearing only the tyrosine kinase domain of the luciferase-fused receptor and the Grb10 protein fused to YFP. Indeed, the Grb10 protein also binds to the phosphorylated insulin receptor and inhibits its catalytic activity.

[6] = tested on: PI3K/Akt pathway; assay: Luc-Akt-PH/YFP-membrane BRET in HEK293T cells (recruitment of Akt to the membrane); assay type: cell-based; conditions: for BRET delta (recruitment of the Akt protein to the membrane): 50 μM
Excerpt: To measure the activity of the PI3-kinase pathway by the BRET technique, HEK293T cells are transfected with plasmids allowing, on the one hand, the expression of the PH (Pleckstrin Homology) domain of the Akt protein which has been fused to the luciferase and, on the other hand, a membrane-addressing sequence which has been fused to the YFP protein. When the PH domain of Akt is recruited to the membrane by the PIP3s, an energy transfer between the luciferase that is coupled to the PH domain of Akt and the membrane YFP protein takes place. The measured BRET signal is a control of the production of PIP3s at the membrane and is a reflection of the activation of the PI-3-kinase/Akt pathway in real time on cells.

[7] = absence of insulin, results not shown

T1 sequence (P06213 763-1382 limits assumed): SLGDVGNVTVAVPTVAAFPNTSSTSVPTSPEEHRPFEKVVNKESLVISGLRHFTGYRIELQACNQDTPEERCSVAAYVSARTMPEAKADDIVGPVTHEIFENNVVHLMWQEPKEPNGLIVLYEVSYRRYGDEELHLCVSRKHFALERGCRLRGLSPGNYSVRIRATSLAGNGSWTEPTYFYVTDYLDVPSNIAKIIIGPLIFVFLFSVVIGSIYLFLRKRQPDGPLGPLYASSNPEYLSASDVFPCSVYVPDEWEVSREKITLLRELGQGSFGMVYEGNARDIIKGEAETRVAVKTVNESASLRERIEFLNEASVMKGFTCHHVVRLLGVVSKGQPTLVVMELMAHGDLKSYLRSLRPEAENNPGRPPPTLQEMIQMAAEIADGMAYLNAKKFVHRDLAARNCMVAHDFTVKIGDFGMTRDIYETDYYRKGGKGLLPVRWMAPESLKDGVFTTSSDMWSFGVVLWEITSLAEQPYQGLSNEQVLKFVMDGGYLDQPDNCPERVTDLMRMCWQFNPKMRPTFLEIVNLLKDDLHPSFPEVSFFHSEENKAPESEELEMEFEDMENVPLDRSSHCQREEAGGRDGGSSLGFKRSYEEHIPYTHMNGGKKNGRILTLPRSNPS
T1 sequence (P06213 28-758 partner limits assumed): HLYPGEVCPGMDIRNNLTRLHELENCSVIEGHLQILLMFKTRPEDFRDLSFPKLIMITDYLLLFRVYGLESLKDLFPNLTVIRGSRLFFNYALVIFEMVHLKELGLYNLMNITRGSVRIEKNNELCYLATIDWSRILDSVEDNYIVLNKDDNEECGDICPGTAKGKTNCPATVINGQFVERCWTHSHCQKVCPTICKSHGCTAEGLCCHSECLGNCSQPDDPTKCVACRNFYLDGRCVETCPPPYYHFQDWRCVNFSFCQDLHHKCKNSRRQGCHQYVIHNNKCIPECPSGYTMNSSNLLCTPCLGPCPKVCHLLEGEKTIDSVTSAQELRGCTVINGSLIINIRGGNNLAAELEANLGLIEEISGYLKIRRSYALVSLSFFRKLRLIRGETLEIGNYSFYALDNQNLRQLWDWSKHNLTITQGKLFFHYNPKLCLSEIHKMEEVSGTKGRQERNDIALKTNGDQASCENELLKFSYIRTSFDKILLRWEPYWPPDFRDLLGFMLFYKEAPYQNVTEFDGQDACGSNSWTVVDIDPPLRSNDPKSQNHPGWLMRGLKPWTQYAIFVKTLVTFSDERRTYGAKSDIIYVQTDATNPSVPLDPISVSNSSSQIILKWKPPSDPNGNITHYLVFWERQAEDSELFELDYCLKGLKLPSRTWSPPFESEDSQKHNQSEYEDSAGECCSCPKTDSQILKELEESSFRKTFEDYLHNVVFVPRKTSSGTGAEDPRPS
T2 sequence (P06213 1023-1298 limits assumed): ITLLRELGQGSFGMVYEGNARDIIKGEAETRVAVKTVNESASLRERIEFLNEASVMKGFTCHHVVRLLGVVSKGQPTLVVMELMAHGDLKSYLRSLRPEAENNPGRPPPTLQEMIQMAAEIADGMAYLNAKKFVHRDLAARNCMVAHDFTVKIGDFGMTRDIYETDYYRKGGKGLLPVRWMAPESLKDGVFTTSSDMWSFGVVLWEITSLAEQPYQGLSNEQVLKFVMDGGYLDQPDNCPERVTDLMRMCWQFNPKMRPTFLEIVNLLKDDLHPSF

Compound: Cc1ccc(/C=C/C(=O)Nc2ccc(S(=O)(=O)Nc3onc(C)c3C)cc2)o1 [Ia]
- effect on the production of PIP3s at the membrane ([1]; absence of insulin): no effect
- effect on the production of PIP3s at the membrane ([1]; presence of 100 nM insulin): no effect
- remaining activity at 50 µM ([2]; 50 μM, insulin stimulation (100 nM), read-out: % BRET signal/DMSO control): 39%
- decrease in the BRET signal between the insulin receptor and the Grb14 protein ([2]; 50 μM, with insulin stimulation): 60%
- decrease in the BRET signal ([2]; in the absence of stimulation with insulin): 50%
- liver appearance ([3]; 30 mg/kg/day by gavage or intraperitoneal injection): no difference
- weight gain ([3]; 30 mg/kg/day by gavage or intraperitoneal injection, after 12 days of treatment): no difference
- blood glucose level measured in the post-absorptive state ([3]; 30 mg/kg/day, regardless of the administration mode): decrease
- toxic effect (overall conclusion) ([3]; HEK293T cells and repeat-dose mouse study): no detectable toxic effect
- increase of the effect of insulin on the expression of ACC [4]: about 60%
- increase of the effect of insulin on the expression of FAS [4]: about 60%
- increase of the effect of insulin on the expression of SCD1 [4]: about 60%
- increase of the effect of insulin on the expression of SREBP-1c [4]: about 60%
- amounts of tyrosine kinase domain of the insulin receptor co-immunoprecipitated with the Grb10 protein [5]: does not change
- BRET delta (recruitment of the Akt protein to the membrane) ([6]; absence of insulin): about 86
- BRET delta (recruitment of the Akt protein to the membrane) ([6]; presence of 5 nM insulin): about 121
- concentration at which the increase in the BRET signal / PI3K/Akt activation is significant [6, 7]: 10 µM
- concentration from which the effect on the BRET signal is detectable [6, 7]: 5 µM
- effect on the recruitment of the Akt protein to the membrane after AG1024 ([6]; cells pre-incubated 1 h with 25 μM AG1024, Ia 50 μM, insulin 5 nM): no longer have any effect
- BRET delta ([6]; without insulin): 86 (+/−41)
